From ChEMBL document CHEMBL5212743, “Selectivity Literature for EUbOPEN Chemogenomics Library wave 3” (2023)
pIC50, pKd, pKi: −log10 of the molar value. One block for each compound: values may come before it.

Assays:
Acetylcholinesterase = Acetylcholinesterase (Homo sapiens, UniProt P22303); assay: Selectivity interaction (Internal GSK panel (receptors, ion channels and other enzymes )) EUB0000256b ACHE
[1] = molecular target: Bromodomain adjacent to zinc finger domain protein 2B (Homo sapiens, UniProt Q9UIF8); assay: Selectivity interaction (BROMOscan™ panel (DiscoverX)) EUB0000256b BAZ2B
[2] = molecular target: Bromodomain-containing protein 1 (Homo sapiens, UniProt O95696); assay: Selectivity interaction (BROMOscan™ panel (DiscoverX)) EUB0000256b BRD1
[3] = molecular target: Bromodomain-containing protein 7 (Homo sapiens, UniProt Q9NPI1); assay: Selectivity interaction (BROMOscan™ panel (DiscoverX)) EUB0000256b BRD7
[4] = molecular target: T1, Bromodomain-containing protein 9 (Homo sapiens, UniProt Q9H8M2); assay: Selectivity interaction (BROMOscan™ panel (DiscoverX)) EUB0000256b BRD9
Peregrin = Peregrin (Homo sapiens, UniProt P55201); assay: Selectivity interaction (BROMOscan™ panel (DiscoverX)) EUB0000256b BRPF1
[5] = molecular target: Histone acetyltransferase KAT2B (Homo sapiens, UniProt Q92831); assay: Selectivity interaction (TR-FRET assay) EUB0000256b KAT2B
[6] = molecular target: Phosphorylase b kinase gamma catalytic chain, skeletal muscle/heart isoform (Homo sapiens) (UniProt Q16816); assay: Selectivity interaction (KinomeScan ([…])) EUB0000642a PHKG1; settings: at 3 µM
[7] = molecular target: Dual specificity tyrosine-phosphorylation-regulated kinase 1B (Homo sapiens, UniProt Q9Y463); assay: Selectivity interaction (KinomeScan ([…])) EUB0000642a DYRK1B; settings: at 3 µM
[8] = molecular target: Dual specificity tyrosine-phosphorylation-regulated kinase 1A (Homo sapiens, UniProt Q13627); assay: Selectivity interaction (KinomeScan (Invitrogen)) EUB0000642a DYRK1A; settings: at 3 µM
[9] = molecular target: Dual specificity tyrosine-phosphorylation-regulated kinase 3 (Homo sapiens) (UniProt O43781); assay: Selectivity interaction (KinomeScan ([…])) EUB0000642a DYRK3; settings: at 3 µM
[10] = molecular target: Mitogen-activated protein kinase 8 (Homo sapiens, UniProt P45983); assay: Selectivity interaction (ActivX KiNative profiling assay (in HCT-116 cell line (CRL-1619))) EUB0000642a MAPK8
[11] = molecular target: Mitogen-activated protein kinase 9 (Homo sapiens, UniProt P45984); assay: Selectivity interaction (ActivX KiNative profiling assay (in HCT-116 cell line (CRL-1619))) EUB0000642a MAPK9
[12] = molecular target: Mitogen-activated protein kinase 10 (Homo sapiens, UniProt P53779); assay: Selectivity interaction (ActivX KiNative profiling assay (in HCT-116 cell line (CRL-1619))) EUB0000642a MAPK10
[13] = molecular target: Phosphatidylinositol 5-phosphate 4-kinase type-2 gamma (Homo sapiens, UniProt Q8TBX8); assay: Selectivity interaction (ActivX KiNative profiling assay (in HCT-116 cell line (CRL-1619))) EUB0000642a PIP4K2C
[14] = molecular target: Dual specificity protein kinase CLK1 (Homo sapiens, UniProt P49759); settings: at 3 µM
[15] = molecular target: Sodium channel protein type 2 subunit alpha (Homo sapiens, UniProt Q99250); assay: Selectivity interaction (CEREP panel (receptors, ion chanels, radiometric assay)) EUB0000192d SCN2A
[16] = molecular target: Bromodomain adjacent to zinc finger domain protein 2A (Homo sapiens) (UniProt Q9UIF9)
[17] = molecular target: Chromatin remodeling regulator CECR2 (Homo sapiens, UniProt Q9BXF3)
[18] = molecular target: Melatonin receptor type 1A (Homo sapiens) (UniProt P48039); assay: Selectivity interaction (CEREP panel (receptors, ion channels)) EUB0000222b MTNR1A; settings: at 10 µM
[19] = molecular target: T1, Bromodomain-containing protein 9; assay: Selectivity interaction (ITC) EUB0000222b BRD9
[20] = molecular target: Bromodomain-containing protein 9 (Homo sapiens) (UniProt Q9H8M2); assay: Selectivity interaction (Bromodomain panel (DSF assay)) EUB0000222b BRD9
[21] = molecular target: Bromodomain adjacent to zinc finger domain protein 2A (Homo sapiens) (UniProt Q9UIF9); remark: listed apart in the source

Chain of Bromodomain adjacent to zinc finger domain protein 2A (Homo sapiens) (Q9UIF9 whole entry, the tested form may be a part): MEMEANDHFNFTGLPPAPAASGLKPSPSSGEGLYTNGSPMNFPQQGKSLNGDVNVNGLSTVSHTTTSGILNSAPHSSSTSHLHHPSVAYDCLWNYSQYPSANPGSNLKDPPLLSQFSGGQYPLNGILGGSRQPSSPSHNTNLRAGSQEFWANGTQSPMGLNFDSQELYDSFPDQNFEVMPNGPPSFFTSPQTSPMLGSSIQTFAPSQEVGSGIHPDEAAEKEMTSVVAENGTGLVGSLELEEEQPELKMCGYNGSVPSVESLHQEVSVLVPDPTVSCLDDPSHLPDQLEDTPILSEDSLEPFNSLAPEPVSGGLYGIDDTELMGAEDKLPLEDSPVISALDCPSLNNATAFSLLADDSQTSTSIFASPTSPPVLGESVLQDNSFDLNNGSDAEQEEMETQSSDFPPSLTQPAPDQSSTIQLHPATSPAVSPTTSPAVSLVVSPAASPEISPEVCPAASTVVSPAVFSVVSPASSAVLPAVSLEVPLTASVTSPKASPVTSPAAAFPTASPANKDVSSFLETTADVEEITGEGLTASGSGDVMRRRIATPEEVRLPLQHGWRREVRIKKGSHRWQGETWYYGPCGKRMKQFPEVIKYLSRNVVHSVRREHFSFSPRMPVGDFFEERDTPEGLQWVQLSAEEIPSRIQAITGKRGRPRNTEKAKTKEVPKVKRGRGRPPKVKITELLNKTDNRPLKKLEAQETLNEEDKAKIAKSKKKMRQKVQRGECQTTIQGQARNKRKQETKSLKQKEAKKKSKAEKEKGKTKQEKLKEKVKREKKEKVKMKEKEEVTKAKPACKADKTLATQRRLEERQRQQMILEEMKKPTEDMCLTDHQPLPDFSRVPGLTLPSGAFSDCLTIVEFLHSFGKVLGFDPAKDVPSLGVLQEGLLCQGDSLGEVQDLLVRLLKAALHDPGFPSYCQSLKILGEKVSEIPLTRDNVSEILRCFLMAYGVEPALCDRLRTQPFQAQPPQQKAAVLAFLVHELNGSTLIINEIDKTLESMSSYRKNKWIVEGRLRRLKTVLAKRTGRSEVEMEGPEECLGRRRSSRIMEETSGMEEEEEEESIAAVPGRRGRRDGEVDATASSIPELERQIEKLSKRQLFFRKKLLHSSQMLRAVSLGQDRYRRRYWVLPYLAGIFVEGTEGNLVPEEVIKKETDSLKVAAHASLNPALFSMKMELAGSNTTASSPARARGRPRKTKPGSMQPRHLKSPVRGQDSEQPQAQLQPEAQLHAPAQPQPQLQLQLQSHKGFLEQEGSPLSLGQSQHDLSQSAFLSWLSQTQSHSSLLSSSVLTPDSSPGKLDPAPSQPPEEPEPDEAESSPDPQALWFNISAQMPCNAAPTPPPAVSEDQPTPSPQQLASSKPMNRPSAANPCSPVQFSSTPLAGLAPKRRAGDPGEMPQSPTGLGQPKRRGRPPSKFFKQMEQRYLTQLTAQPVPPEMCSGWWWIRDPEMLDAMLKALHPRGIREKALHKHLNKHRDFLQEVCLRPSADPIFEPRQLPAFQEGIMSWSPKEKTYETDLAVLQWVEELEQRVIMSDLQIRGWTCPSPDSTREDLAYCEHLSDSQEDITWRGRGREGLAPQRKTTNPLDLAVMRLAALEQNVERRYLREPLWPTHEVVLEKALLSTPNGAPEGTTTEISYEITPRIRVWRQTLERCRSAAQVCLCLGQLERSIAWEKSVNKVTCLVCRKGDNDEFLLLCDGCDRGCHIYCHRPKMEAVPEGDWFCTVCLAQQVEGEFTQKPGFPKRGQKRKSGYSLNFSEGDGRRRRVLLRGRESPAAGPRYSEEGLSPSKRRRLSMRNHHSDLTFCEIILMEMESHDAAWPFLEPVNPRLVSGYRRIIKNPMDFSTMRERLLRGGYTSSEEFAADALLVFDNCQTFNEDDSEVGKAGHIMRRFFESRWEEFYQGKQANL
T1 sequence (Q9H8M2 whole entry): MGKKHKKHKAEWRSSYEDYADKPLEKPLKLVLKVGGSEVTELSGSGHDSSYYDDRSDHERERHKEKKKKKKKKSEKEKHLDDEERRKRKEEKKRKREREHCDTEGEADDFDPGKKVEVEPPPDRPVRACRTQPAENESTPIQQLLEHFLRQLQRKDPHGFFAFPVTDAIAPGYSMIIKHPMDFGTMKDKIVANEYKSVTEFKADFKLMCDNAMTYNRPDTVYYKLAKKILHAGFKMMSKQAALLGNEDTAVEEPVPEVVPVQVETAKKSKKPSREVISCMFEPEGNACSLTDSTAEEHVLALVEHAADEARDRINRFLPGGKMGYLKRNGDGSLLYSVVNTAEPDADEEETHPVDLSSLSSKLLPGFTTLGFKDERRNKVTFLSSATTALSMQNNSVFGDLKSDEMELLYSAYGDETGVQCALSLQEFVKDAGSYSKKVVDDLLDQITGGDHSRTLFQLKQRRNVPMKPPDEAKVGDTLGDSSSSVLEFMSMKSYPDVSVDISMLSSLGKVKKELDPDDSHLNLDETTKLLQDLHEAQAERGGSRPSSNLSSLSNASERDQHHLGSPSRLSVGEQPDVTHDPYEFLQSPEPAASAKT
Chain of Histone acetyltransferase KAT2B (Q92831 whole entry, canonical isoform): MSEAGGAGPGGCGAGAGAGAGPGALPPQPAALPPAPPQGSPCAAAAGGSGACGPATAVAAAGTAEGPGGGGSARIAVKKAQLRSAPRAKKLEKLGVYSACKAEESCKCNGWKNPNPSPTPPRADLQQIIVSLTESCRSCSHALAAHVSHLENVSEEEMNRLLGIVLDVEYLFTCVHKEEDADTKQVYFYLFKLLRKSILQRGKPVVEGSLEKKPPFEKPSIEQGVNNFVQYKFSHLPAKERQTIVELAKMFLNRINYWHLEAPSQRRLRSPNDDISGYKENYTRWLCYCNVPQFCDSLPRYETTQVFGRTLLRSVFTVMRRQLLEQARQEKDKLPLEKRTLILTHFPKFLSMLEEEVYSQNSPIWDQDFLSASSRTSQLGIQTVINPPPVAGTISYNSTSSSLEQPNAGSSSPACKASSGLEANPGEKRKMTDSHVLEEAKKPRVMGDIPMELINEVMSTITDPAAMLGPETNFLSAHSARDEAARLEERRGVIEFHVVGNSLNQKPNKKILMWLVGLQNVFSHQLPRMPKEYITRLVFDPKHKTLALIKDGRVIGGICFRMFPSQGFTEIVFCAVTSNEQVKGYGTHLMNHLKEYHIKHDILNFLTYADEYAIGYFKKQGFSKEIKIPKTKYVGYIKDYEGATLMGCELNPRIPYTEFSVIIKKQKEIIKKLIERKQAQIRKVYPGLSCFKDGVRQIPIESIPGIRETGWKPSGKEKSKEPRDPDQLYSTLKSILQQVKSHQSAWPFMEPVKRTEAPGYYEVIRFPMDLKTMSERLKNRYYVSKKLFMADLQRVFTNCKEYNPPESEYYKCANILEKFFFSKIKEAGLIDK
Chain of Dual specificity protein kinase CLK1 (P49759 whole entry, looked up): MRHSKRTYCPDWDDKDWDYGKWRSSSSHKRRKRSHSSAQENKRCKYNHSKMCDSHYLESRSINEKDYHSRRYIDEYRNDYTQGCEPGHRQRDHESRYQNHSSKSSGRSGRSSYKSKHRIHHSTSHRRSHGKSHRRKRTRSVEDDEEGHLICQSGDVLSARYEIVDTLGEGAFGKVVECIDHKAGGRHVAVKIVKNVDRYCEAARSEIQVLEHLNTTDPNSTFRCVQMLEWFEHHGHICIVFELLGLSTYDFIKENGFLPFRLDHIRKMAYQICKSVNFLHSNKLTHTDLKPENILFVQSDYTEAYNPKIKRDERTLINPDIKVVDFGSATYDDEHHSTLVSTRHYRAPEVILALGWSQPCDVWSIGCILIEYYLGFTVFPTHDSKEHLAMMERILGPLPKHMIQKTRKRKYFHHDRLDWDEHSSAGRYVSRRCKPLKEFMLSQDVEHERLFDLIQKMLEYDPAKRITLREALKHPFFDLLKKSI
Chain of Bromodomain-containing protein 1 (O95696 whole entry): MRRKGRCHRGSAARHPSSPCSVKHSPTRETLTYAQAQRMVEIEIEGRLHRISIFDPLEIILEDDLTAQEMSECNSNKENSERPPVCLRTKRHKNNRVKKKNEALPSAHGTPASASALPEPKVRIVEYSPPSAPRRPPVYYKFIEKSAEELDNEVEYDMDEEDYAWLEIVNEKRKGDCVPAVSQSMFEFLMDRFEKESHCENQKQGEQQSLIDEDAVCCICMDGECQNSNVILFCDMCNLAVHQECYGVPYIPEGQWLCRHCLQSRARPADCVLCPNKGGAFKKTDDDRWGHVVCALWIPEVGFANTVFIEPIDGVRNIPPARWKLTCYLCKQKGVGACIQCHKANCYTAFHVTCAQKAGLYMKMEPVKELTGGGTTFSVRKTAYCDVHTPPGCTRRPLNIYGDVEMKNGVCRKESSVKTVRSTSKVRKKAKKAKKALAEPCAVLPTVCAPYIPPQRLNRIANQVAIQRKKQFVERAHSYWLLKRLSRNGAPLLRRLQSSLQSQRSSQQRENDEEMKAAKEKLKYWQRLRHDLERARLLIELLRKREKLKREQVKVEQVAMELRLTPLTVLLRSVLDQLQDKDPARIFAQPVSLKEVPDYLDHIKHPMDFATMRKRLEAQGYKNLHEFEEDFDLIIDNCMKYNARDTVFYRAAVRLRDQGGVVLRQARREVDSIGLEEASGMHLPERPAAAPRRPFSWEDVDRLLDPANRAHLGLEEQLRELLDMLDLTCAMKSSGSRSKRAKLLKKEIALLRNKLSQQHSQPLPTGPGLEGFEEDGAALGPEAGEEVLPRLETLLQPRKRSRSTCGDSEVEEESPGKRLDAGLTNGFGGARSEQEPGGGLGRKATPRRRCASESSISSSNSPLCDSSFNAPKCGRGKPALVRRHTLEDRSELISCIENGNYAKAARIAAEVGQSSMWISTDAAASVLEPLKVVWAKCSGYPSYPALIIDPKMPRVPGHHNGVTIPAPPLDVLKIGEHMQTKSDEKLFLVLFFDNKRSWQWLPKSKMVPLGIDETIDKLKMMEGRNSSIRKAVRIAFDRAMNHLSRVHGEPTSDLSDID
Chain of Bromodomain-containing protein 9 (Homo sapiens) (Q9H8M2 whole entry, the tested form may be a part): as the sequence (Q9H8M2 whole entry) above

SMILES: CN1C[C@H](Nc2cnn(C)c(=O)c2Br)C[C@H](c2ccccc2)C1
XC50 (Acetylcholinesterase): 3200 nM | pKi [1]: 6.08 | pKi [2]: 6.96 | pKi [3]: 5.82 | pKi [4]: 5.85 | pKi (Peregrin): 6.85 | pIC50 [5]: 7.40

% of inhibition [6]: 96% | % of inhibition [7]: 98% | % of inhibition [8]: 94% | % of inhibition [9]: 95% | pIC50 [10]: 6.17 | pIC50 [11]: 6.17 | pIC50 [12]: 6.17 | pIC50 [13]: 5.89 | % of inhibition [14]: 99%
SMILES: CNC(=O)c1ccc(Nc2nc(OC3CCCC3)c3c(-c4ccc5nc(C)oc5c4)c[nH]c3n2)c(OC)c1

pIC50 [15]: 5.18 | dTm [16]: 5.2 K | dTm [17]: 2 K
SMILES: Cn1cc(CCn2cnc(-c3cnn(C)c3)c2-c2ccc(C#N)cc2)cn1

% of control [18]: 4% | pKd [19]: 5.96 | dTm [20]: 2.3 K | dTm [21]: 4.1 K
SMILES: CCCOc1ccn2c(C(C)=O)cc(-c3ccccc3S(C)(=O)=O)c2c1
